Laboratory results from ChEMBL document CHEMBL1201862, “PubChem BioAssay data set” (2004).
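Briefly, cells in 96-well plates were exposed to five compound concentrations for 48 h, and endpoints were estimated by linear interpolation. GI50 is the concentration that inhibits growth by half.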 Active and inactive are the calls of the source. Rule as the data show it: active = GI50 up to about 1.1 µM and inactive = higher.

Key:
Experiment in all cases: DTP human tumour cell line panel, 48 h
NCI/ADR-RES = tested on: NCI/ADR-RES
T47D = tested on: T47D
DLD-1 = tested on: DLD-1
DMS-114 = tested on: DMS-114
HOP-18 = tested on: HOP-18
LXFL 529 = tested on: LXFL 529
XF498 = tested on: XF498
DMS-273 = tested on: DMS-273
RXF 631 = tested on: RXF 631

SMILES | GI50 (NCI/ADR-RES) | GI50 (T47D) | also measured
CC12CCC(O)CC1CCC1C2CCC2(C)C(C(=O)CC(O)C(F)(F)F)CCC12 (stereo unspecified) | 24.9 µM (inactive) | 20.2 µM (inactive) | 
CN(C)C(=S)SCC(N)=O | > 100 µM (inactive) | > 100 µM (inactive) | 
CC(C)(C)c1ccc(-n2c3nc(=O)n(-c4ccccc4CO)c(=O)c-3cc3ccccc32)cc1 | 50 µM (inactive) | 50 µM (inactive) | 
S=C1/C(=N/c2ccccc2)N(c2ccccc2)/C(=N\c2ccccn2)N1c1ccccc1 | 16.7 µM (inactive) | 15 µM (inactive) | 
CCCCCCNC(=O)C1=C(C)NC(C)=C(C(=O)NCCCCCC)C1 | > 100 µM (inactive) | > 100 µM (inactive) | 
N#CN=C(N(Cc1ccccc1)Cc1ccccc1)N(Cc1ccccc1)Cc1ccccc1 |  |  | GI50 (DLD-1): 5.18 µM (inactive); GI50 (DMS-114): 4.85 µM (inactive); GI50 (HOP-18): > 100 µM (inactive); GI50 (LXFL 529): 3.89 µM (inactive); GI50 (XF498): 12.5 µM (inactive)
CCOP(=O)(OCC)C(Cc1c[nH]c2ccccc12)C(=O)O (stereo unspecified) | > 100 µM (inactive) | > 100 µM (inactive) | 
Cc1cc(O)nc(NN2C(Cl)C(=O)C2c2cccc([N+](=O)[O-])c2)n1 (stereo unspecified) |  |  | GI50 (DMS-114): 21.8 µM (inactive); GI50 (DMS-273): 15.6 µM (inactive); GI50 (HOP-18): 18.5 µM (inactive); GI50 (LXFL 529): 16 µM (inactive)
O=c1[nH]c2cc(C(F)(F)F)ccc2nc1C(F)(F)F | 37.9 µM (inactive) | 36.6 µM (inactive) | 
Cc1ncc([N+](=O)[O-])n1CC[N+](C)([O-])CCCCn1ccnc1[N+](=O)[O-] (stereo unspecified) | > 100 µM (inactive) | > 100 µM (inactive) | 
C=C(Nc1ccc(OC)cc1OC)C(=O)Cc1cccc[n+]1[O-] |  |  | GI50 (DLD-1): > 100 µM (inactive); GI50 (DMS-114): > 100 µM (inactive); GI50 (DMS-273): > 100 µM (inactive); GI50 (HOP-18): > 100 µM (inactive); GI50 (LXFL 529): > 100 µM (inactive); GI50 (XF498): > 100 µM (inactive)
Fc1cccc(CSc2ncnc3c2ncn3C2CCCS2)c1 (stereo unspecified) | 25 µM (inactive) | 29.3 µM (inactive) | 
N#Cc1c(Nc2ccc(F)cc2)[n+]([O-])c2ccc(Cl)cc2[n+]1[O-] | 1.9 µM (inactive) | 2.89 µM (inactive) | 
CC1=C2c3c(C)ccc4ccc(C)c(c34)C2(O)C(C)C1=O (stereo unspecified) | 15.2 µM (inactive) | 29.3 µM (inactive) | 
COC1CC(=O)C2C(=O)N(c3ccccc3)C(=O)C23C(C(=O)c2ccccc2)=C(C)NC13O (stereo unspecified) | 20.9 µM (inactive) | 2.92 µM (inactive) | 
CC(C)(/N=N/C(C)(C)C(=O)NCCO)C(=O)NCCO | > 100 µM (inactive) | > 100 µM (inactive) | 
C[C@]12CC[C@H](O[C@@H]3O[C@H](CO[C@@H]4O[C@H](CO)[C@@H](O)[C@H](O)[C@H]4O)[C@@H](O)[C@H](O)[C@H]3O)C[C@@H]1CC[C@@H]1[C@@H]2CC[C@]2(C)[C@@H](C3=CC(=O)OC3)CC[C@]12O [UZARIN] | 15.4 µM (inactive) | 31.1 µM (inactive) | 
CCOC(=O)c1nc2ccccc2n(CC)c1=O | > 100 µM (inactive) | > 100 µM (inactive) | 
CCN(CC)c1ccc2cc(C(=O)Nc3nc(C45CC6CC(CC(C6)C4)C5)cs3)c(=O)oc2c1 | > 100 µM (inactive) |  | 
COc1cc2c(cc1O)CC[C@@H]1C2CC[C@@]2(C)C1CC[C@@H]2O (stereo partly specified) | 0.458 µM (active) | 4.66 µM (inactive) | 
O=C1C=C(Br)c2c(-c3ccccc3)oc3cccc1c23 | 48 µM (inactive) | 6.21 µM (inactive) | GI50 (DLD-1): > 100 µM (inactive); GI50 (DMS-114): 24.8 µM (inactive); GI50 (DMS-273): > 42.9 µM (inactive); GI50 (HOP-18): > 100 µM (inactive); GI50 (LXFL 529): > 65.2 µM (inactive); GI50 (RXF 631): 46.8 µM (inactive)
CCOC(=O)C1S(=O)(=O)OCCOS1(=O)=O |  |  | GI50 (DLD-1): > 100 µM (inactive); GI50 (DMS-273): > 100 µM (inactive); GI50 (LXFL 529): > 100 µM (inactive); GI50 (RXF 631): > 100 µM (inactive); GI50 (XF498): > 100 µM (inactive)
CC(=O)OCCCCn1cnc2c(Cl)nc(Nc3ccccc3)nc21 | > 100 µM (inactive) | > 100 µM (inactive) | 
CCOC(=O)c1nc2ccc(C(F)(F)F)cc2nc1NCc1ccc(Cl)c(Cl)c1 | 47.1 µM (inactive) | 44.5 µM (inactive) | 
O=c1oc2ccccc2cc1-c1cn2cc(Cl)ccc2n1 | 0.345 µM (active) | 11 µM (inactive) | 
Cc1ccc(S(=O)(=O)NN=C2CCCCCCCCCCC2)cc1 | > 100 µM (inactive) | > 100 µM (inactive) | 
CC(=O)c1cccc(NC(=O)C(=O)C(C(=O)c2ccccc2F)C2OC(=O)c3ccccc32)c1 (stereo unspecified) |  |  | GI50 (DLD-1): 45.8 µM (inactive); GI50 (DMS-114): 31 µM (inactive); GI50 (DMS-273): 34 µM (inactive); GI50 (LXFL 529): 44 µM (inactive); GI50 (RXF 631): 21.1 µM (inactive); GI50 (XF498): 35.6 µM (inactive)
O=C1/C(=C/c2ccccc2)CN(C(=O)C(Cl)(Cl)Cl)C/C1=C\c1ccccc1 |  |  | GI50 (DLD-1): 1.96 µM (inactive); GI50 (DMS-114): 1.6 µM (inactive); GI50 (DMS-273): 1.06 µM (active); GI50 (HOP-18): 2.96 µM (inactive); GI50 (LXFL 529): 1.59 µM (inactive)
C/C(=C/c1c(C)[nH]c(=O)[nH]c1=O)C(=O)O | > 1370 µM (inactive) |  | GI50 (DLD-1): > 1370 µM (inactive); GI50 (DMS-114): > 1370 µM (inactive); GI50 (DMS-273): > 1370 µM (inactive); GI50 (HOP-18): > 1370 µM (inactive); GI50 (XF498): > 1370 µM (inactive)
